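In this assay, cells in 96-well plates receive the compound at five concentrations for 48 hours. Endpoints are linearly interpolated between the surrounding concentrations. At the TGI there is no net growth.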
Key:
Assay in all cases: NCI anticancer screen, dose series, 48 h
786-0 renal = tested on: 786-0 renal
A549 NSCLC = tested on: A549 NSCLC
ACHN renal = tested on: ACHN renal
CAKI-1 renal = tested on: CAKI-1 renal
CCRF-CEM leukemia = tested on: CCRF-CEM leukemia
COLO 205 colon = tested on: COLO 205 colon
DU-145 prostate = tested on: DU-145 prostate
EKVX NSCLC = tested on: EKVX NSCLC
HCT-116 colon = tested on: HCT-116 colon
HL-60(TB) leukemia = tested on: HL-60(TB) leukemia
HOP-62 NSCLC = tested on: HOP-62 NSCLC
HOP-92 NSCLC = tested on: HOP-92 NSCLC
HS 578T breast = tested on: HS 578T breast
HT29 colon = tested on: HT29 colon
IGROV1 ovarian = tested on: IGROV1 ovarian
K-562 leukemia = tested on: K-562 leukemia
KM12 colon = tested on: KM12 colon
LOX IMVI melanoma = tested on: LOX IMVI melanoma
M14 melanoma = tested on: M14 melanoma
MALME-3M melanoma = tested on: MALME-3M melanoma
MCF7 breast = tested on: MCF7 breast
MDA-MB-231 breast = tested on: MDA-MB-231 breast
MDA-MB-435 = tested on: MDA-MB-435
MDA-N = tested on: MDA-N
MOLT-4 leukemia = tested on: MOLT-4 leukemia
NCI-H226 lung = tested on: NCI-H226 lung
NCI-H23 lung = tested on: NCI-H23 lung
NCI-H460 lung = tested on: NCI-H460 lung
NCI/ADR-RES ovarian = tested on: NCI/ADR-RES ovarian
OVCAR-3 ovarian = tested on: OVCAR-3 ovarian
OVCAR-4 ovarian = tested on: OVCAR-4 ovarian
OVCAR-5 ovarian = tested on: OVCAR-5 ovarian
OVCAR-8 ovarian = tested on: OVCAR-8 ovarian
PC-3 prostate = tested on: PC-3 prostate
RPMI-8226 leukemia = tested on: RPMI-8226 leukemia
RXF 393 renal = tested on: RXF 393 renal
SF-268 CNS = tested on: SF-268 CNS
SF-295 CNS = tested on: SF-295 CNS
SF-539 CNS = tested on: SF-539 CNS
SK-MEL-28 melanoma = tested on: SK-MEL-28 melanoma
SK-MEL-5 melanoma = tested on: SK-MEL-5 melanoma
SK-OV-3 ovarian = tested on: SK-OV-3 ovarian
SN12C renal = tested on: SN12C renal
SNB-19 CNS = tested on: SNB-19 CNS
SNB-75 CNS = tested on: SNB-75 CNS
SR leukemia = tested on: SR leukemia
SW-620 colon = tested on: SW-620 colon
T-47D breast = tested on: T-47D breast
TK-10 renal = tested on: TK-10 renal
UACC-257 melanoma = tested on: UACC-257 melanoma
UACC-62 melanoma = tested on: UACC-62 melanoma
UO-31 renal = tested on: UO-31 renal
A498 renal = tested on: A498 renal
HCC-2998 colon = tested on: HCC-2998 colon
HCT-15 colon = tested on: HCT-15 colon
NCI-H522 lung = tested on: NCI-H522 lung
SK-MEL-2 melanoma = tested on: SK-MEL-2 melanoma
U251 CNS = tested on: U251 CNS

S=C1Cc2c([nH]c3ccccc23)-c2ccccc2N1
TGI (786-0 renal): > 100 µM | TGI (A549 NSCLC): > 100 µM | TGI (ACHN renal): 80.6 µM | TGI (CAKI-1 renal): 79 µM | TGI (CCRF-CEM leukemia): > 100 µM | TGI (COLO 205 colon): > 100 µM | TGI (DU-145 prostate): > 100 µM | TGI (EKVX NSCLC): > 100 µM | TGI (HCT-116 colon): > 100 µM | TGI (HL-60(TB) leukemia): > 100 µM | TGI (HOP-62 NSCLC): 62.3 µM | TGI (HOP-92 NSCLC): > 100 µM | TGI (HS 578T breast): > 100 µM | TGI (HT29 colon): > 100 µM | TGI (IGROV1 ovarian): > 100 µM | TGI (K-562 leukemia): > 100 µM | TGI (KM12 colon): > 100 µM | TGI (LOX IMVI melanoma): > 100 µM | TGI (M14 melanoma): > 100 µM | TGI (MALME-3M melanoma): > 100 µM | TGI (MCF7 breast): > 100 µM | TGI (MDA-MB-231 breast): > 100 µM | TGI (MDA-MB-435): > 100 µM | TGI (MDA-N): > 100 µM | TGI (MOLT-4 leukemia): > 100 µM | TGI (NCI-H226 lung): 89.5 µM | TGI (NCI-H23 lung): > 100 µM | TGI (NCI-H460 lung): > 100 µM | TGI (NCI/ADR-RES ovarian): > 100 µM | TGI (OVCAR-3 ovarian): > 100 µM | TGI (OVCAR-4 ovarian): > 100 µM | TGI (OVCAR-5 ovarian): > 100 µM | TGI (OVCAR-8 ovarian): > 100 µM | TGI (PC-3 prostate): > 100 µM | TGI (RPMI-8226 leukemia): > 100 µM | TGI (RXF 393 renal): 46 µM | TGI (SF-268 CNS): > 100 µM | TGI (SF-295 CNS): > 100 µM | TGI (SF-539 CNS): > 100 µM | TGI (SK-MEL-28 melanoma): > 100 µM | TGI (SK-MEL-5 melanoma): > 100 µM | TGI (SK-OV-3 ovarian): 64.4 µM | TGI (SN12C renal): > 100 µM | TGI (SNB-19 CNS): > 100 µM | TGI (SNB-75 CNS): 66.7 µM | TGI (SR leukemia): > 100 µM | TGI (SW-620 colon): > 100 µM | TGI (T-47D breast): > 100 µM | TGI (TK-10 renal): 52.9 µM | TGI (UACC-257 melanoma): > 100 µM | TGI (UACC-62 melanoma): > 100 µM | TGI (UO-31 renal): 58.9 µM

O=[N+]([O-])c1ccccc1N=Nc1c(O)sc2ccccc12
TGI (A498 renal): > 100 µM | TGI (A549 NSCLC): > 100 µM | TGI (ACHN renal): > 100 µM | TGI (CAKI-1 renal): > 100 µM | TGI (CCRF-CEM leukemia): > 100 µM | TGI (COLO 205 colon): > 100 µM | TGI (DU-145 prostate): > 100 µM | TGI (EKVX NSCLC): > 100 µM | TGI (HCC-2998 colon): > 100 µM | TGI (HCT-116 colon): > 100 µM | TGI (HCT-15 colon): > 100 µM | TGI (HL-60(TB) leukemia): > 100 µM | TGI (HOP-62 NSCLC): > 100 µM | TGI (HOP-92 NSCLC): > 100 µM | TGI (HS 578T breast): > 100 µM | TGI (HT29 colon): > 100 µM | TGI (IGROV1 ovarian): > 100 µM | TGI (K-562 leukemia): > 100 µM | TGI (KM12 colon): > 100 µM | TGI (LOX IMVI melanoma): > 100 µM | TGI (M14 melanoma): > 100 µM | TGI (MALME-3M melanoma): > 100 µM | TGI (MCF7 breast): > 100 µM | TGI (MDA-MB-435): > 100 µM | TGI (MDA-N): > 100 µM | TGI (MOLT-4 leukemia): > 100 µM | TGI (NCI-H226 lung): > 100 µM | TGI (NCI-H23 lung): > 100 µM | TGI (NCI-H460 lung): > 100 µM | TGI (NCI-H522 lung): > 100 µM | TGI (OVCAR-3 ovarian): > 100 µM | TGI (OVCAR-4 ovarian): 98.4 µM | TGI (OVCAR-5 ovarian): > 100 µM | TGI (OVCAR-8 ovarian): > 100 µM | TGI (PC-3 prostate): > 100 µM | TGI (RPMI-8226 leukemia): > 100 µM | TGI (SF-268 CNS): > 100 µM | TGI (SF-295 CNS): > 100 µM | TGI (SF-539 CNS): > 100 µM | TGI (SK-MEL-2 melanoma): > 100 µM | TGI (SK-MEL-28 melanoma): > 100 µM | TGI (SK-MEL-5 melanoma): > 100 µM | TGI (SK-OV-3 ovarian): > 100 µM | TGI (SNB-19 CNS): > 100 µM | TGI (SNB-75 CNS): 79.5 µM | TGI (SR leukemia): > 100 µM | TGI (SW-620 colon): > 100 µM | TGI (T-47D breast): > 100 µM | TGI (TK-10 renal): > 100 µM | TGI (U251 CNS): > 100 µM | TGI (UACC-257 melanoma): > 100 µM | TGI (UACC-62 melanoma): > 100 µM | TGI (UO-31 renal): > 100 µM
